Experimental data from patent US5200409A, “Composition and use of substituted 1,3-dithiolo-and 1,4-dithiinoquinoxalines as an antimicrobial” (The Dow Chemical Company, priority 1992, dated 1993).
≈ marks a conversion by molar mass, not a printed value. Read-outs that look alike come from different tables or passages of the source.

Assays:
[1] = system: Pseudomonas aeruginosa (PRD-10); assay: Minimum inhibitory concentration (MIC) in nutrient agar; type: cell-based, Pseudomonas aeruginosa ATCC 15442
Outline: (§1)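 Growth inhibition was read visually after 48 h at 30° C on nutrient agar plates containing test compound at 500, 250, 100, 50, 25, 10, 5, 2.5, 1.0 or 0 ppm. Plates at pH 6.8 and pH 8.2 were inoculated with bacterial suspensions of 10^8 CFU/ml.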

[2] = system: Klebsiella pneumoniae (Kp); assay: as above; type: cell-based, Klebsiella pneumoniae ATCC 8308
Outline: as §1

[3] = system: Salmonella choleraesuis (Sc); assay: as above; type: cell-based, Salmonella choleraesuis ATCC 10708; conditions: Salmonella enterica
Outline: as §1

Bacillus subtilis (Bs) = assay: as above; type: cell-based, Bacillus subtilis ATCC 8473
Outline: as §1

[4] = system: Penicillium chrysogenum (Pc); assay: Minimum inhibitory concentration (MIC) in malt yeast agar; type: cell-based, Penicillium chrysogenum ATCC 9480; conditions: read-out: Minimum Inhibitory Concentration, Pc
Outline: (§2)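 Steps: compound added to malt yeast agar at 48° C (500–1.0 ppm, plus untreated control); plates poured and dried 24 h; inoculated by replicator with diluted suspensions from 7-day slants; incubated 30° C, read at 72 h.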

[5] = system: Saccharomyces cerevisiae (Sc); assay: as above; type: cell-based, Saccharomyces cerevisiae ATCC 4105; conditions: read-out: Minimum Inhibitory Concentration, Sc
Outline: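 Compound dispersed in malt yeast agar at final 500, 250, 100, 50, 25, 10, 5, 2.5, 1.0 and 0 ppm (from 1% acetone/water solution); plates dried 24 h, then inoculated with saline/octylphenoxy polyethoxy ethanol suspensions of 7-day cultures diluted 1:9. Incubated at 30° C; read at 48 h for yeast, 72 h for fungi.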

Fusarium oxysporum (Fo) = assay: as above; type: cell-based, Fusarium oxysporum ATCC 48112; conditions: read-out: Minimum Inhibitory Concentration, Fo
Outline: as §2

Aspergillus niger (An) = assay: as above; type: cell-based, Aspergillus niger ATCC 16404; conditions: read-out: Minimum Inhibitory Concentration, An
Outline: as §2

Escherichia coli (Ec) = assay: Minimum inhibitory concentration (MIC) in nutrient agar; type: cell-based, Escherichia coli ATCC 11229
Outline: as §1

[6] = 48 h, pH 6.8, read-out: Minimum Inhibitory Concentration, PRD
[7] = 48 h, pH 8.2, read-out: Minimum Inhibitory Concentration, PRD
[8] = 48 h, pH 8.2, read-out: Minimum Inhibitory Concentration, Kp
[9] = pH 6.8, nutrient agar, 30° C., 48 hours, read-out: Minimum Inhibitory Concentration, Kp
[10] = 48 h, pH 6.8, read-out: Minimum Inhibitory Concentration, Sc
[11] = 48 h, pH 8.2, read-out: Minimum Inhibitory Concentration, Sc
[12] = 48 h, pH 6.8, read-out: Minimum Inhibitory Concentration, Bs
[13] = 48 h, pH 8.2, read-out: Minimum Inhibitory Concentration, Bs
[14] = malt yeast agar, 30° C., 48 hours for yeast
[15] = malt yeast agar, 30° C., 72 hours for fungi
[16] = 48 h, pH 6.8, read-out: Minimum Inhibitory Concentration, Ec
[17] = 48 h, pH 8.2, read-out: Minimum Inhibitory Concentration, Ec
[18] = pH 6.8, nutrient agar, 30° C., 48 hours, read-out: Minimum Inhibitory Concentration, Bs
[19] = 48 h, pH 6.8, read-out: Minimum Inhibitory Concentration, Kp

SMILES | MIC [1, 6] | MIC [1, 7] | MIC [2, 8] | MIC [2, 9] | MIC [3, 10] | MIC [3, 11] | MIC (Bacillus subtilis (Bs); [12]) | MIC (Bacillus subtilis (Bs); [13]) | MIC ([4]; 72 h) | MIC [5, 14] | MIC (Fusarium oxysporum (Fo); [15]) | MIC (Aspergillus niger (An); 72 h) | MIC (Escherichia coli (Ec); [16]) | MIC (Escherichia coli (Ec); [17]) | MIC (Bacillus subtilis (Bs); [18]) | MIC [4, 15] | MIC (Fusarium oxysporum (Fo); 72 h) | MIC (Aspergillus niger (An); [15]) | MIC ([5]; 48 h) | other results
N#CC(C#N)=C1Sc2nc3ccc([N+](=O)[O-])cc3nc2S1 [L, 6-nitro-1,3-dithiolo-(4,5-b)-quinoxaline-2-ylidene-propanedinitrile] | > 500 µg/mL | > 500 µg/mL | > 500 µg/mL | > 500 µg/mL | > 500 µg/mL | > 500 µg/mL | 100 µg/mL (≈ 319 µM) | > 500 µg/mL | 2.5 µg/mL (≈ 7.98 µM) | 5 µg/mL (≈ 16 µM) | 10 µg/mL (≈ 31.9 µM) | 2.5 µg/mL (≈ 7.98 µM) | > 500 µg/mL | > 500 µg/mL | – | – | – | – | – | –
N#CC1=C(C#N)Sc2nc3ccccc3nc2S1 [E, 1,4-dithiino-(2,3-b)-quinoxaline-2,3-dicarbonitrile] | > 500 µg/mL | > 500 µg/mL | > 500 µg/mL | 500 µg/mL (≈ 1860 µM) | > 500 µg/mL | > 500 µg/mL | – | > 500 µg/mL | – | < 10 µg/mL | – | – | > 500 µg/mL | > 500 µg/mL | 50 µg/mL (≈ 186 µM) | < 10 µg/mL | 50 µg/mL (≈ 186 µM) | < 10 µg/mL | – | –
N#CC(C#N)=C1Sc2nc3cc([N+](=O)[O-])c([N+](=O)[O-])cc3nc2S1 [M, 6,7-dinitro-1,3-dithiolo-(4,5-b)-quinoxaline-2-ylidene-propanedinitrile] | > 500 µg/mL | > 500 µg/mL | > 500 µg/mL | – | 500 µg/mL (≈ 1400 µM) | > 500 µg/mL | 100 µg/mL (≈ 279 µM) | 250 µg/mL (≈ 698 µM) | 2.5 µg/mL (≈ 6.98 µM) | – | – | 2.5 µg/mL (≈ 6.98 µM) | > 500 µg/mL | > 500 µg/mL | – | – | 5 µg/mL (≈ 14 µM) | – | 2.5 µg/mL (≈ 6.98 µM) | MIC [2, 19]: 50 µg/mL (≈ 140 µM)
N#CC1=C(C#N)Sc2nc3cc([N+](=O)[O-])c([N+](=O)[O-])cc3nc2S1 [B, 7,8-Dinitro-1,4-dithiino-(2,3-b)quinoxaline-2,3-dicarbonitrile] | > 500 µg/mL | > 500 µg/mL | > 500 µg/mL | – | 500 µg/mL (≈ 1400 µM) | > 500 µg/mL | 500 µg/mL (≈ 1400 µM) | 25 µg/mL (≈ 69.8 µM) | 10 µg/mL (≈ 27.9 µM) | – | – | 25 µg/mL (≈ 69.8 µM) | 250 µg/mL (≈ 698 µM) | > 500 µg/mL | – | – | 25 µg/mL (≈ 69.8 µM) | – | 25 µg/mL (≈ 69.8 µM) | MIC [2, 19]: 250 µg/mL (≈ 698 µM)
N#CC(C#N)=C1Sc2nc3ccc(Cl)cc3nc2S1 [O, 6-chloro-1,3-dithiolo-(4,5-b)-quinoxaline-2-ylidene-propanedinitrile] | > 500 µg/mL | > 500 µg/mL | > 500 µg/mL | > 500 µg/mL | > 500 µg/mL | > 500 µg/mL | > 500 µg/mL | > 500 µg/mL | – | > 500 µg/mL | > 500 µg/mL | – | > 500 µg/mL | > 500 µg/mL | – | 500 µg/mL (≈ 1650 µM) | – | 500 µg/mL (≈ 1650 µM) | – | –
N#CC1=C(C#N)Sc2nc3cc([N+](=O)[O-])ccc3nc2S1 [A, 7-nitro-1,4-dithiino-(2,3-b)-quinoxaline-2,3-dicarbonitrile] | – | > 500 µg/mL | 500 µg/mL (≈ 1600 µM) | 25 µg/mL (≈ 79.8 µM) | – | > 500 µg/mL | – | – | – | – | 2.5 µg/mL (≈ 7.98 µM) | – | – | > 500 µg/mL | < 10 µg/mL | – | – | – | 2.5 µg/mL (≈ 7.98 µM) | MIC ([1]; pH 6.8, nutrient agar, 30° C., 48 hours, read-out: Minimum Inhibitory Concentration, PRD): 250 µg/mL (≈ 798 µM); MIC ([3]; pH 6.8, nutrient agar, 30° C., 48 hours, read-out: Minimum Inhibitory Concentration, Sc): 50 µg/mL (≈ 160 µM); MIC (Bacillus subtilis (Bs); pH 8.2, nutrient agar, 30° C., 48 hours, read-out: Minimum Inhibitory Concentration, Bs): 100 µg/mL (≈ 319 µM); MIC (Escherichia coli (Ec); pH 6.8, nutrient agar, 30° C., 48 hours, read-out: Minimum Inhibitory Concentration, Ec): 25 µg/mL (≈ 79.8 µM)
Cc1ccc2nc3c(nc2c1)SC(C#N)=C(C#N)S3 [D, 7-Methyl-1,4-dithiino-(2,3-b)quinoxaline-2,3-dicarbonitrile] | > 500 µg/mL | > 500 µg/mL | > 500 µg/mL | > 500 µg/mL | > 500 µg/mL | > 500 µg/mL | – | 250 µg/mL (≈ 885 µM) | 50 µg/mL (≈ 177 µM) | – | – | 50 µg/mL (≈ 177 µM) | > 500 µg/mL | > 500 µg/mL | 25 µg/mL (≈ 88.5 µM) | – | 50 µg/mL (≈ 177 µM) | – | 25 µg/mL (≈ 88.5 µM) | –
N#CC1=C(C#N)Sc2nc3cc(Cl)ccc3nc2S1 [C, 7-chloro-1,4-dithiino-(2,3-b)-quinoxaline-2,3-dicarbonitrile] | > 500 µg/mL | > 500 µg/mL | > 500 µg/mL | > 500 µg/mL | > 500 µg/mL | > 500 µg/mL | – | 25 µg/mL (≈ 82.6 µM) | – | < 10 µg/mL | 25 µg/mL (≈ 82.6 µM) | – | > 500 µg/mL | > 500 µg/mL | 25 µg/mL (≈ 82.6 µM) | < 10 µg/mL | – | 25 µg/mL (≈ 82.6 µM) | – | –
